From ChEMBL document CHEMBL1151016, “Synthesis and evaluation of 3-deoxy-D-manno-2-octulosonate-8-phosphate (KDO8P) synthase inhibitors” (Bioorg Med Chem Lett, 1997)

Assay: The compound was tested for inhibitory activity against KDO 8-P synthase by using a KDO 8-P synthase enzymatic assay

Row | IC50 [mM] | Compound
1 | 3.8 | O=C(O)C1=C[C@H](OCC(O)P(=O)(O)O)[C@H](O)[C@H](O)C1 (stereo partly drawn)
2 | > 25 | O=C(O)C1=C[C@H](OCCP(=O)(O)O)[C@H](O)[C@H](O)C1
3 | 4.3 | O=P(O)(O)OC[C@H]1O[C@H](O)[C@H](O)[C@@H]1O
